Entries after “also recorded” stand apart in the source; their conditions may differ. Where two headings read alike, the source gives them in different places.
Experiments:
CYP2D6 [1] = settings: in vivo; cited from earlier work
CYP2D6 [2] = target: CYP2D6 (Homo sapiens, UniProt P10635); settings: cited from earlier work
cochlea = settings: local administration; cited from earlier work
[3] = system: permanent threshold shift; settings: 6.7 mmol daily, versus placebo (sodium aspartate); rifle noise six days per week for eight weeks; cited from earlier work
[4] = system: noise-induced temporary threshold shift; settings: daily ingestion of 122 mg for 10 days; cited from earlier work
[5] = system: outer hair cells of cochlear explants; assay: Cochlear explant cultures challenged with cisplatin, outer hair cell damage; assay type: cell-based, Sprague-Dawley rats
Source text: Explants of sensory epithelium from the basal turn of postnatal day 5 (p5) Sprague-Dawley rats were isolated using the methods of Van De Water and Sobkowicz (Van d Water T., Ruben R. J. (1974) “Growth of the inner ear in organ culture,” Ann. Otol. Rhinol. Laryngol., 83:1-16; Sobkowicz H. M., Loftus J. M., Slapnick S. M. (1993) “Tissue culture of the organ of Corti.,” Acta. Suppl. 502:3-36). Explants were maintained in Dulbecco's Modified Eagle's medium with 10% fetal bovine serum and 30 U/ml penicillin. HEPES buffer was added to a concentration of 25 mM and the glucose concentration increased to 6 mg/ml to enhance neuronal survival. Each 15 mm dish containing 250 μl of medium was maintained in an incubator at 37° C. with 5% CO2 and 95% humidity.
Toxicity-inducers (gentamicin or cisplatin, 1-100 μM) were exposed to the medium 12-24 h following plating for 48 h. Concentrations of gentamicin or cisplatin were employed that produced approximately 50% loss of outer hair cells, which permitted for assessments of either increases or decreases in outer hair cell damage.
Test compounds were applied to the cultures for 12 h, and then challenged with medium containing gentamicin or cisplatin plus the test compound for an additional 48 h, followed by fixation and evaluation.
At the end of culture, free floating explants were fixed with 4% paraformaldehyde and 1% glutaraldehyde in phosphate-buffered saline. The explants were then permeabilized with 1 % Tween-20 in phosphate-buffered saline. The explants were then stained with conjugated phalloidin-rhodamine probe in phosphate-buffered saline, washed twice, and mounted between two cover slips in a 1:3 mixture of phosphate-buffered saline/glycerol. Explants were imaged by light and fluorescence microscopy and by laser confocal microscopy to assess the degree of damage to the outer hair cells.
The results of one such test, employing cisplatin as an ototoxic agent and nicergoline as a test compound, are shown in FIG. 1. The control cultures contained no cisplatin and no nicergoline. […]

cochlear sensory cells = settings: perfusion into the cochlea via osmotic minipump; cited from earlier work

Sequence of CYP2D6 (Homo sapiens, UniProt P10635) (P10635 whole entry): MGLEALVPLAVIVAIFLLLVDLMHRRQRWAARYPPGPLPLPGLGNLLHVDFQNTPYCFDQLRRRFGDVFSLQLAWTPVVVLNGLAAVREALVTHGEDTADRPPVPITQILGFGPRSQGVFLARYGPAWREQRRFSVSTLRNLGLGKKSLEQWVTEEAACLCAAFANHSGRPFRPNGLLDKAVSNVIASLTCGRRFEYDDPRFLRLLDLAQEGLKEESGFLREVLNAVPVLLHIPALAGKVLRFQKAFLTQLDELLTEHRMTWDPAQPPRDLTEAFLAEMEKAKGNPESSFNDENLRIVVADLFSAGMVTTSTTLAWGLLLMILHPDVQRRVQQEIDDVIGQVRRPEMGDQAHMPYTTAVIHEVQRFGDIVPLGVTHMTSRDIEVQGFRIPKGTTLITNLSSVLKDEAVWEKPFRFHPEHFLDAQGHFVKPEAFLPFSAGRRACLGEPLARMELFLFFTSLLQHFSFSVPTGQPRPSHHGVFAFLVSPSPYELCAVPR

## CO[C@]12C[C@@H](CO)CN(C)[C@@H]1Cc1c[nH]c3cccc2c13 [MDL, 10-α-methoxy-9,9-dihydrolysergol]
CYP2D6 [1]
  level in plasma after nicergoline dosing: low concentration of MDL

## CO[C@]12C[C@@H](CO)CN(C)[C@@H]1Cc1cn(C)c3cccc2c13 [MMDL, 1-methyl-10-α-methoxy-9,10-dihydrolysergol]
CYP2D6 [1]
  level in plasma after nicergoline dosing: relatively high concentrations of MMDL
CYP2D6 [2]; in vivo
  level in blood plasma after nicergoline dosing: very little MMDL

## CCN(CC)CCn1c(=O)c(Cc2ccc(OC)cc2)nc2ccccc21 [caroverine, 1-[2-(diethylamino)ethyl]-3-[(4-methoxyphenyl)methyl]-2-(1H)-quinoxalinone]
cochlea
  protection of cochlea from noise trauma: protection of cochlea from noise trauma

## N[C@@H](CC(=O)[O-])C(=O)[O-].[Mg+2] [magnesium aspartate]
[3]
  effect on permanent threshold shift: significant effect on permanent threshold shift

## [Mg] [magnesium]
[4]
  effect on noise-induced temporary threshold shift: protect against noise-induced temporary threshold shift

## CO[C@]12C[C@@H](COC(=O)c3cncc(Br)c3)CN(C)[C@@H]1Cc1cn(C)c3cccc2c13 [nicergoline]
[5]; 0 μg/ml cisplatin, 10 μM nicergoline, 5 cultures
  concentrations at which nicergoline itself is non-toxic to cochlear cultures: up to 10 μM
[5]; 2 μg/ml cisplatin, nicergoline 10 nM, 1 μM or 10 μM, FIG. 1
  protection against toxic effects of cisplatin: protects cochlear ear explants from chemically-induced damage by cisplatin; also recorded: exerting protection against the toxic effects of cisplatin at all tested concentrations
[5]; cisplatin 2 μg/ml (sentence prints 2 μM), test compound 12 h, then with cisplatin 48 h, 5 cultures each
  concentration providing maximum protection from cisplatin-induced cell death: about 1 μM
CYP2D6 [2]; individuals having normal CYP2D6 function
  level in blood plasma after nicergoline dosing: almost no detectable nicergoline in blood plasma

## Nc1nc2ccc(OC(F)(F)F)cc2s1 [riluzole, 2-amino-6-trofluoromethoxybenzothiazole]
Cochlear sensory cells
  effect on cochlear damage after acoustic trauma: prevents mitochondrial damage and subsequent translocation of cytochrome c, DNA fragmentation and hair cell degeneration
